Reference: the NIST ThermoML archive (doi:10.1021/je4009415)

What was measured:
[1] = Liquid; for mass density: Vibrating tube method; for vapor or sublimation pressure: Ebulliometric method (Recirculating still)
[2] = refractive index (Na D-line) (dimensionless); settings: 298.15 K; 101.33 kPa; Liquid; Standard Abbe refractometry
[3] = xn = mol fraction of the nth substance listed; settings: Liquid, Vibrating tube method

CCOC(=O)CC [ethyl propanoate]
[1]
Settings	mass density [kg/m3]	vapor or sublimation pressure [kPa]
288.15 K	895.58	–
298.15 K	884.15	–
308.15 K	872.62	–
318.15 K	861.08	–
328.15 K	849.41	–
348.07 K	–	45
349.55 K	–	47.5
350.96 K	–	50
352.34 K	–	52.5
353.66 K	–	55
354.91 K	–	57.5
356.15 K	–	60
357.32 K	–	62.5
358.48 K	–	65
359.57 K	–	67.5
360.66 K	–	70
361.72 K	–	72.5
362.74 K	–	75
363.71 K	–	77.5
364.69 K	–	80
365.63 K	–	82.5
366.55 K	–	85
367.47 K	–	87.5
368.35 K	–	90
369.21 K	–	92.5
370.06 K	–	95
370.87 K	–	97.5
371.73 K	–	100
372.09 K	–	101.32
372.18 K	–	101.32
373.31 K	–	105
374.84 K	–	110
376.29 K	–	115
377.7 K	–	120
379.08 K	–	125
380.4 K	–	130
381.67 K	–	135
382.91 K	–	140
384.15 K	–	145
385.32 K	–	150
386.47 K	–	155
387.6 K	–	160
388.69 K	–	165
389.77 K	–	170
390.81 K	–	175
391.83 K	–	180
392.85 K	–	185
393.81 K	–	190
394.77 K	–	195
395.72 K	–	200
396.64 K	–	205
397.55 K	–	210
398.43 K	–	215
399.31 K	–	220
400.17 K	–	225
401 K	–	230
401.83 K	–	235
402.65 K	–	240
403.46 K	–	245
404.25 K	–	250
405.04 K	–	255
405.79 K	–	260
406.56 K	–	265
407.3 K	–	270
408.03 K	–	275
408.75 K	–	280

Settings	refractive index
[2]	1.3811

CCOC(=O)CC [ethyl propanoate] + CCCCC
mass density [kg/m3], [3]
Settings	288.15 K	298.15 K
x1 = 0.0503	643.39	–
x1 = 0.0545	–	634.55
x1 = 0.1013	–	646.47
x1 = 0.1017	656.5	–
x1 = 0.1511	669.25	–
x1 = 0.1538	–	659.85
x1 = 0.2025	682.62	–
x1 = 0.2051	–	673.1
x1 = 0.254	–	685.81
x1 = 0.2551	696.41	–
x1 = 0.3012	708.53	–
x1 = 0.3038	–	698.8
x1 = 0.3525	722.09	–
x1 = 0.3594	–	713.37
x1 = 0.3947	733.28	–
x1 = 0.4062	–	725.7
x1 = 0.4496	747.92	–
x1 = 0.4575	–	739.37
x1 = 0.5009	761.7	–
x1 = 0.5083	–	752.81
x1 = 0.5519	775.33	–
x1 = 0.56	–	766.57
x1 = 0.5987	787.9	–
x1 = 0.606	–	778.84
x1 = 0.6449	800.24	–
x1 = 0.6559	–	792.17
x1 = 0.6974	814.34	–
x1 = 0.7061	–	805.64
x1 = 0.7488	828.17	–
x1 = 0.7498	–	817.26
x1 = 0.7974	841.13	–
x1 = 0.8007	–	830.93
x1 = 0.8477	854.65	–
x1 = 0.8535	–	844.98
x1 = 0.8951	867.4	–
x1 = 0.9054	–	858.85
x1 = 0.9482	881.6	–
x1 = 0.9511	–	871.06
x1 = 1	895.58	884.15

CCCCCCC [heptane]
[1]
Settings	mass density [kg/m3]	vapor or sublimation pressure [kPa]
288.15 K	688.16	–
298.15 K	679.62	–
308.15 K	670.96	–
318.15 K	662.33	–
328.15 K	653.61	–
371.38 K	–	101.32

Settings	refractive index
[2]	1.3853

CCCCCCC [heptane] + CCC(=O)OC
[3], x2 = 0
Settings	mass density [kg/m3]
288.15 K	688.16
298.15 K	679.62
308.15 K	670.96
318.15 K	662.33
328.15 K	653.61

CCCCCCC [heptane] + CCOC(=O)CC
[3], x2 = 0
Settings	mass density [kg/m3]
288.15 K	688.16
298.15 K	679.62
308.15 K	670.96
318.15 K	662.33
328.15 K	653.61

CCC(=O)OC [methyl propanoate]
[1]
Settings	mass density [kg/m3]	vapor or sublimation pressure [kPa]
288.15 K	921.21	–
298.15 K	909.1	–
308.15 K	896.91	–
318.15 K	884.71	–
328.15 K	872.22	–
335.15 K	–	55
336.38 K	–	57.5
337.53 K	–	60
338.61 K	–	62.5
339.76 K	–	65
340.79 K	–	67.5
341.81 K	–	70
342.79 K	–	72.5
343.75 K	–	75
344.68 K	–	77.5
345.59 K	–	80
346.49 K	–	82.5
347.35 K	–	85
348.2 K	–	87.5
349.03 K	–	90
349.83 K	–	92.5
350.62 K	–	95
352.34 K	–	100
352.72 K	–	101.32
352.75 K	–	101.32
353.81 K	–	105
355.23 K	–	110
356.53 K	–	115
357.87 K	–	120
359.16 K	–	125
360.42 K	–	130
361.65 K	–	135
362.8 K	–	140
363.97 K	–	145
365.05 K	–	150
366.15 K	–	155
367.22 K	–	160
368.27 K	–	165
369.26 K	–	170
370.25 K	–	175
371.22 K	–	180
372.2 K	–	185
373.12 K	–	190
374.01 K	–	195
374.9 K	–	200
375.77 K	–	205
376.63 K	–	210
377.52 K	–	215
378.3 K	–	220
379.14 K	–	225
379.96 K	–	230
380.72 K	–	235
381.51 K	–	240
382.25 K	–	245
383.03 K	–	250
383.74 K	–	255
384.47 K	–	260
385.21 K	–	265
385.87 K	–	270
386.61 K	–	275
387.28 K	–	280

Settings	refractive index
[2]	1.3743

CCC(=O)OC [methyl propanoate] + CCCCC
mass density [kg/m3], [3], 101 kPa
Settings	288.15 K	298.15 K
x1 = 0.0597	644.23	–
x1 = 0.0641	–	635.16
x1 = 0.0925	651.9	–
x1 = 0.0938	–	642.1
x1 = 0.1482	–	654.98
x1 = 0.1507	665.97	–
x1 = 0.204	679.21	–
x1 = 0.2099	–	670.19
x1 = 0.2574	–	682.36
x1 = 0.2614	693.95	–
x1 = 0.3127	707.38	–
x1 = 0.3135	–	696.99
x1 = 0.3382	714.27	–
x1 = 0.3389	–	703.72
x1 = 0.3927	729.16	–
x1 = 0.3942	–	718.75
x1 = 0.442	743.09	–
x1 = 0.4459	–	733.12
x1 = 0.4985	759.2	–
x1 = 0.4999	–	748.56
x1 = 0.5461	773.25	–
x1 = 0.5478	–	762.56
x1 = 0.5921	–	775.9
x1 = 0.5926	787.12	–
x1 = 0.6407	801.96	–
x1 = 0.6434	–	791.33
x1 = 0.6898	–	805.83
x1 = 0.69	817.19	–
x1 = 0.7559	–	826.88
x1 = 0.7581	839.01	–
x1 = 0.8051	–	842.74
x1 = 0.8072	855.11	–
x1 = 0.8487	868.74	–
x1 = 0.8499	–	857.54
x1 = 0.8891	882.39	–
x1 = 0.8915	–	871.51
x1 = 0.9538	904.73	–
x1 = 0.9601	–	894.98
x1 = 1	921.21	909.1

CCCCCCCCC [nonane]
[1]
Settings	mass density [kg/m3]	vapor or sublimation pressure [kPa]
288.15 K	721.65	–
298.15 K	713.85	–
308.15 K	705.96	–
318.15 K	698.06	–
328.15 K	690.17	–
423.9 K	–	101.32

Settings	refractive index
[2]	1.4032

CCCCCCCCC [nonane] + CCC(=O)OC
[3], x2 = 0
Settings	mass density [kg/m3]
288.15 K	721.65
298.15 K	713.85
308.15 K	705.96
318.15 K	698.06
328.15 K	690.17

CCCCCCCCC [nonane] + CCOC(=O)CC
[3], x2 = 0
Settings	mass density [kg/m3]
288.15 K	721.65
298.15 K	713.85
308.15 K	705.96
318.15 K	698.06
328.15 K	690.17

CCCCC [pentane]
[1]
Settings	mass density [kg/m3]	vapor or sublimation pressure [kPa]
288.15 K	630.78	–
298.15 K	620.9	–
298.91 K	–	70
299.82 K	–	72.5
300.77 K	–	75
301.65 K	–	77.5
302.52 K	–	80
303.38 K	–	82.5
304.22 K	–	85
305.02 K	–	87.5
305.81 K	–	90
306.62 K	–	92.5
307.37 K	–	95
308.12 K	–	97.5
308.87 K	–	100
309.23 K	–	101.32
310.28 K	–	105
311.64 K	–	110
312.97 K	–	115
314.26 K	–	120
315.5 K	–	125
316.7 K	–	130
317.87 K	–	135
319.01 K	–	140
320.11 K	–	145
321.17 K	–	150
322.24 K	–	155
323.25 K	–	160
324.26 K	–	165
325.24 K	–	170
326.18 K	–	175
327.12 K	–	180
328.03 K	–	185
328.93 K	–	190
329.8 K	–	195
330.66 K	–	200
331.51 K	–	205
332.34 K	–	210
333.15 K	–	215
333.95 K	–	220
334.73 K	–	225
335.5 K	–	230
336.28 K	–	235
337.02 K	–	240
337.75 K	–	245
338.47 K	–	250
339.19 K	–	255
339.89 K	–	260
340.59 K	–	265
341.27 K	–	270
341.94 K	–	275
342.6 K	–	280

Settings	mass density [kg/m3]
[1], 298.15 K, 101 kPa	620.91

Settings	refractive index
[2]	1.3547

CCCCC [pentane] + CCC(=O)OC
[3], 101 kPa, x2 = 0
Settings	mass density [kg/m3]
288.15 K	630.78
298.15 K	620.91

CCCCC [pentane] + CCOC(=O)CC
[3], x2 = 0
Settings	mass density [kg/m3]
288.15 K	630.78
298.15 K	620.9
